Assays:
[1] = target: Serine/threonine-protein kinase 10 (Homo sapiens) (UniProt O94804); assay: Inhibition of LOK (unknown origin) at 0.5 uM relative to control
[2] = target: T1, Discoidin domain-containing receptor 2 (Homo sapiens) (UniProt Q16832); assay: Inhibition of DDR2 (unknown origin) at 0.5 uM relative to control
T1 sequence (whole entry): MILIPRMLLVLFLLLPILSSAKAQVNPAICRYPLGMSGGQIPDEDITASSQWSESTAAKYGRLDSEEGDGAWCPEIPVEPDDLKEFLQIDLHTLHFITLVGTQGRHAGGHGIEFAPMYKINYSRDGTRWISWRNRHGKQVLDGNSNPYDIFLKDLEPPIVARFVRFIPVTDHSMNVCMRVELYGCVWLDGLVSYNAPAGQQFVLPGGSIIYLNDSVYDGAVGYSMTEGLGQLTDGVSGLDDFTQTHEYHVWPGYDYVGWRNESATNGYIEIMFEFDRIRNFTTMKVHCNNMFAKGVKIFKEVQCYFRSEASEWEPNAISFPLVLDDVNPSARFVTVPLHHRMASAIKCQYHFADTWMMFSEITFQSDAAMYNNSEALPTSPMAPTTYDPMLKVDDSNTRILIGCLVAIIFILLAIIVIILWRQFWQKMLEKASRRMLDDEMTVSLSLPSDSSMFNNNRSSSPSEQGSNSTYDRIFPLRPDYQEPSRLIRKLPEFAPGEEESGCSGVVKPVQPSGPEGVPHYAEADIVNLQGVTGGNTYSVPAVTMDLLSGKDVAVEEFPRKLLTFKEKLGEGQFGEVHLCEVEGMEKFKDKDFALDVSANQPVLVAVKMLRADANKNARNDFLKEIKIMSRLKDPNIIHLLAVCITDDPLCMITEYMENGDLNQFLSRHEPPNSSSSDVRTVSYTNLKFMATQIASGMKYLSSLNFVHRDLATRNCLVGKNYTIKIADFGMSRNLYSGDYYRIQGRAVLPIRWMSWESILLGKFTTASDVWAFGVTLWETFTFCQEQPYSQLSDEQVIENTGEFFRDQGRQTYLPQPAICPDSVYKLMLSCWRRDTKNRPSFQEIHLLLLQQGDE

[3] = target: T2, Ephrin type-B receptor 4 (Homo sapiens) (UniProt P54760); assay: Inhibition of EPHB4 (unknown origin) at 0.5 uM relative to control
T2 sequence (whole entry): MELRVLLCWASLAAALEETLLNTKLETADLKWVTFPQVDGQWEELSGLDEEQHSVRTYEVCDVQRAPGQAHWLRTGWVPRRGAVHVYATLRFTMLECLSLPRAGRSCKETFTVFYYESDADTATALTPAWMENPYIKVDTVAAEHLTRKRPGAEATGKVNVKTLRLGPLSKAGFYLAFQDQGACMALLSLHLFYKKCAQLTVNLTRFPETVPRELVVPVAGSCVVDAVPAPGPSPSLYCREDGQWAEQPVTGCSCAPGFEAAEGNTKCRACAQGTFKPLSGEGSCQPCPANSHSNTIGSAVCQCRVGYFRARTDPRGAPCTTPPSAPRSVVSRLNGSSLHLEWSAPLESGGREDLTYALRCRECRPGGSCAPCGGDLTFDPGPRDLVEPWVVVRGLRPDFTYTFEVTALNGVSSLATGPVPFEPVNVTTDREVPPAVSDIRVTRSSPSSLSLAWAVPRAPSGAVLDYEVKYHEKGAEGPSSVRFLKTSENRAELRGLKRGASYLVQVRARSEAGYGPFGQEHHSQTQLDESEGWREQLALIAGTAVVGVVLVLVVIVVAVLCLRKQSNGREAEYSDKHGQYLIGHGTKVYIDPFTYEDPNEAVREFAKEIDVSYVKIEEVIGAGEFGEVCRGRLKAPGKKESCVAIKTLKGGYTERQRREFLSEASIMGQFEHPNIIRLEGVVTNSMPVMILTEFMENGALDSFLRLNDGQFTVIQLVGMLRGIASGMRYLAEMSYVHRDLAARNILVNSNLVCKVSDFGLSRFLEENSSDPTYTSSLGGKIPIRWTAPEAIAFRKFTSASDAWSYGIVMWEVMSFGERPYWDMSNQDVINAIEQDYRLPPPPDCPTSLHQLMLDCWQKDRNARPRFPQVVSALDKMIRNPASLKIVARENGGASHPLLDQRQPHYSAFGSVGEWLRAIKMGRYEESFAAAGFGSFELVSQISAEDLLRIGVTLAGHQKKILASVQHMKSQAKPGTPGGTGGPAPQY

[4] = target: High affinity nerve growth factor receptor (Homo sapiens) (UniProt P04629); assay: Inhibition of TRKA (unknown origin) at 0.5 uM relative to control
High affinity nerve growth factor receptor (Homo sapiens), sequence (P04629 33-796 limits assumed): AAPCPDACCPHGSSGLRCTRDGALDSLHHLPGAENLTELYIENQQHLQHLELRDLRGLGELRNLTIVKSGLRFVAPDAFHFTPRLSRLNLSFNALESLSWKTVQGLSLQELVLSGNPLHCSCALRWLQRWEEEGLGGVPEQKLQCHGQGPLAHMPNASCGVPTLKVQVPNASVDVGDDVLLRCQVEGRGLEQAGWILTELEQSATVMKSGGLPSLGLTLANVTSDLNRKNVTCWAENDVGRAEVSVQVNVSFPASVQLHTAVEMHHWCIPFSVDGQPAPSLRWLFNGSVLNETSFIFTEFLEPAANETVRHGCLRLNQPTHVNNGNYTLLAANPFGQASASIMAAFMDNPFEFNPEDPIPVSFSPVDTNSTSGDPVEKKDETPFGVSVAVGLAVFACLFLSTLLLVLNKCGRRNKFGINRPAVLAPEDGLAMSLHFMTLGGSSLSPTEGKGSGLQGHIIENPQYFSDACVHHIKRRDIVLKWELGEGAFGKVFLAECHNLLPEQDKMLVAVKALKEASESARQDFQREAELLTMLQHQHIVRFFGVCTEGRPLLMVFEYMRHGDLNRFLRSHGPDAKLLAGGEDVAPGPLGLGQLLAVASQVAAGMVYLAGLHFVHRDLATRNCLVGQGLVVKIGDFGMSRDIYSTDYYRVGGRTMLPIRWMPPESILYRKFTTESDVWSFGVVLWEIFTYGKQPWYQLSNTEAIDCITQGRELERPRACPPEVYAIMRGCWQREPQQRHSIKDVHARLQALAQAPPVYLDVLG

[5] = target: T3, Muscle, skeletal receptor tyrosine-protein kinase (Homo sapiens) (UniProt O15146); assay: Inhibition of MUSK (unknown origin) at 0.5 uM relative to control
T3 sequence (whole entry): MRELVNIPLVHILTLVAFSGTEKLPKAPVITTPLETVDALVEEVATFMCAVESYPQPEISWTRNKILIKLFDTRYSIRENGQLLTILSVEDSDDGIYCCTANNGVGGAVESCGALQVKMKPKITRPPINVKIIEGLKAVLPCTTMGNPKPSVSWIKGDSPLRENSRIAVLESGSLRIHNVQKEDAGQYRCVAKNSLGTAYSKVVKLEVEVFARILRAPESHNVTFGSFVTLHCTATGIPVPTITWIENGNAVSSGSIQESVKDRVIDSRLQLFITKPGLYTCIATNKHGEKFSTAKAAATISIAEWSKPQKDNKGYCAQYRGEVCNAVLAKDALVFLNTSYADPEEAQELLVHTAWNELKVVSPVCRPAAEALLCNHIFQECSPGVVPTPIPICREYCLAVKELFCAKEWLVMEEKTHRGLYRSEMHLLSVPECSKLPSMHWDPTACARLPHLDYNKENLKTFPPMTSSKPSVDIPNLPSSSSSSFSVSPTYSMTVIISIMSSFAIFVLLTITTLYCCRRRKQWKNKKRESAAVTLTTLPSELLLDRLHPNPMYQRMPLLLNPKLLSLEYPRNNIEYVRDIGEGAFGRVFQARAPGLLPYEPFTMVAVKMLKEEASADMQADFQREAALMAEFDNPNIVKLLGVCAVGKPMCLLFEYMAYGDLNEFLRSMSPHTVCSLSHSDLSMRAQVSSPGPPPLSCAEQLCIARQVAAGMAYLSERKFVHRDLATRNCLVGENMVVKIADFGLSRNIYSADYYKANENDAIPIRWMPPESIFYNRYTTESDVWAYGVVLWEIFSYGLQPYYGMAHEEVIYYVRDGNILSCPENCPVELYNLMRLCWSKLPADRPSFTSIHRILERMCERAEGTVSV

Serine/threonine-protein kinase 10 (Homo sapiens), sequence (O94804 whole entry, looked up, the tested form may be a part): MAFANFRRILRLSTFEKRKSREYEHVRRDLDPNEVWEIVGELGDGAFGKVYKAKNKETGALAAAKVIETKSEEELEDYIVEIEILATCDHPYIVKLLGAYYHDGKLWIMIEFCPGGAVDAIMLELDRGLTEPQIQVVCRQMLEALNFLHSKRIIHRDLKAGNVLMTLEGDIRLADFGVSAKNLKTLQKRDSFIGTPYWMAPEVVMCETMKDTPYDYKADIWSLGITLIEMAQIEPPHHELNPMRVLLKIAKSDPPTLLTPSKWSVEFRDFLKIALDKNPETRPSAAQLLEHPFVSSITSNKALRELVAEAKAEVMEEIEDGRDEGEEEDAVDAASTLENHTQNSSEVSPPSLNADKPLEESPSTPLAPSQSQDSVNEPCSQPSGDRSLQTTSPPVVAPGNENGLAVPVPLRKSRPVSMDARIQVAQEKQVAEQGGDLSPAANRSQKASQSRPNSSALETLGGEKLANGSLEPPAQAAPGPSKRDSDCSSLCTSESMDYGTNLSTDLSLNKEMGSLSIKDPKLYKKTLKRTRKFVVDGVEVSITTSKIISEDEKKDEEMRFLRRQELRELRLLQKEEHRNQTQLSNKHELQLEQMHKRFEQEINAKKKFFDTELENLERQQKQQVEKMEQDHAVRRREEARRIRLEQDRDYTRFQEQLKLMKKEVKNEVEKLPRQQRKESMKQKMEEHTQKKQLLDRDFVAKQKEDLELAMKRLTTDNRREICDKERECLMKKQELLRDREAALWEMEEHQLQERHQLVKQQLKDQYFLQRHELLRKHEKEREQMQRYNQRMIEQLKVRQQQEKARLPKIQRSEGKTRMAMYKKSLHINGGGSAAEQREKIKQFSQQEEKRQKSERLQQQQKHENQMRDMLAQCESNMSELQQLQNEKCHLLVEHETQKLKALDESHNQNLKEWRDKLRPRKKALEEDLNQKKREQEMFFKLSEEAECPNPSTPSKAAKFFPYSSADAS

| SMILES | inhibition [1] [%] | inhibition [2] [%] | inhibition [3] [%] | inhibition [4] [%] | inhibition [5] [%] |
| --- | --- | --- | --- | --- | --- |
| CSc1nc(C(=O)Nc2ccc(Oc3cc4cnn(C)c4cc3Br)cc2)c(-c2ccc(F)cc2)o1 | 36 | 48 |  |  |  |
| CNC(=O)c1cc(Oc2ccc(NC(=O)c3nc(C(F)(F)F)sc3-c3ccc(F)cc3)cc2)ccn1 | 58 |  | 24 |  | 34 |
| CNC(=O)c1cc(Oc2ccc(NC(=O)c3nc(SC)n(CCN(C)C)c3-c3ccc(F)cc3)cc2)ccn1 | 47 | 26 | 25 | 42 | 29 |
| CNC(=O)c1cc(Oc2ccc(NC(=O)c3nc(S(C)(=O)=O)sc3-c3ccc(F)cc3)cc2)ccn1 |  | 61 | 24 | 36 | 70 |

Now from value to molecule:

| inhibition [1] [%] | inhibition [2] [%] | inhibition [3] [%] | inhibition [4] [%] | inhibition [5] [%] | SMILES |
| --- | --- | --- | --- | --- | --- |
| 66 | 58 | 42 | 47 |  | CNC(=O)c1cc(Oc2ccc(NC(=O)c3nc(SC)oc3-c3ccc(F)cc3)cc2)ccn1 |
| 26 | 76 |  | 43 | 25 | CNC(=O)c1cc(Oc2ccc(NC(=O)c3n[nH]nc3-c3ccc(F)cc3)cc2)ccn1 |
| 55 | 47 | 43 | 43 |  | CNC(=O)c1cc(Oc2ccc(NC(=O)c3nc(SC)oc3-c3ccc(F)cc3)cc2F)ccn1 |
| 50 | 54 |  | 58 | 51 | CNC(=O)c1cc(Oc2ccc(NC(=O)c3nc(NC)sc3-c3ccc(F)cc3)cc2)ccn1 |
| 93 | 97 | 82 |  | 97 | CNC(=O)c1cc(Oc2ccc(NC(=O)c3nc(SC)[nH]c3-c3ccc(F)cc3)cc2)ccn1 |

— ChEMBL document CHEMBL4806968, “Hipk inhibitors and methods of use thereof” (2020)
